The values below come from patent publication US7056863B1, “Synergistic herbicidal compositions herbicides from the group of the hydroxyphenylpyruvate dioxygenase inhibitors” (Aventis CropScience GmbH, priority 1999, dated 2006).

The test system of one series is KCHSC (Kochia scoparia). As to the kind of experiment: Outdoor plot trial, post-emergence treatment, visual evaluation of herbicidal activity. It is filed as in vivo. The conditions noted are these: Example B.I, outdoors. As for the experimental part:
(§1) Outdoors, crop plants were grown on plots of a size of from 5 to 10 m^2 on various soils and under various climatic conditions, and the natural presence of harmful plants and/or their seeds in the soil was utilized for the experiments. The treatment with the compositions according to the invention or the herbicides A) and B) applied individually was carried out after emergence of the harmful and the crop plants, in general at the 2- to 4-leaf stage. The active compounds or active compound combinations, formulated as WG, WP or EC, was carried out by the post-emergence method. After 2 to 8 weeks, visual evaluation was carried out in comparison with an untreated comparative group. […] In addition, the herbicidal activities of the compositions according to the invention exceed the expected values according to Colby.
(§2) If the observed activity values of the mixtures already exceed the formal sum of the values for the trials with individual applications, they also exceed the expected value according to Colby which is calculated using the following formula (cf. S. R. Colby; in Weeds 15 (1967) pp. 20 to 22):
(§3) The figures denote: • A, B=Activity of Components A and B in percent, at a dosage of a and b gram of ai/ha, respectively. • E=Expected value in % at a dosage of a+b gram of ai/ha.

For series [1], the system named is CHEAL (Chenopodium album). The series is described as above. It is filed as in vivo. The conditions noted are these: outdoors. The protocol:
as §1, §2, §3

The subject of series [2] is POROL (Portulaca oleracea). The description is as above. It is filed as in vivo. The conditions noted are these: outdoors. The protocol: as §1, §2, §3
In series [3] the test system is PHBPU (Pharbitis purpurea). The series is described as above. In kind it is in vivo. The conditions noted are these: outdoors. The protocol:
as §1, §2, §3

In the next series the test system is TRZDU (Triticum davam). As to the kind of experiment: Outdoor plot trial, post-emergence treatment, damage to crop plant. The conditions noted are these: in vivo. The protocol: as §1
Another series has as its system HORVS (Hordeum vulgaris). The description is as above. In kind it is in vivo. The conditions noted are these: Example B.VI, 100 g of ai/ha. The protocol: as §1
In the next series the test system is ZEAMX (Zea mays). The description is as above. In kind it is in vivo. The conditions noted are these: Example B.VII, 300 g of ai/ha. As for the experimental part:
as §1

Another series has as its system BRAPL. As to the kind of experiment: Outdoor plot trial, post-emergence treatment, visual evaluation of herbicidal activity. In kind it is in vivo. The conditions noted are these: Example B.VII, 300 g of ai/ha, outdoors. As for the experimental part: as §1, §2, §3

Consider `CS(=O)(=O)c1ccc(C(=O)C2C(=O)CCCC2=O)c(Cl)c1C1=NOCC1` [Compound A1], for which, in the series with KCHSC (Kochia scoparia) (25 g of ai/ha), the KCHSC found worked out at 28%.
As for `Cc1cc(C(=O)C2C(=O)CCCC2=O)c(C)c2c1S(=O)(=O)CCC2Oc1ncccn1` (stereo not shown) [Compound A2], in series [1] (Example B.IV, 100 g of ai/ha), the CHEAL found was 34%. Also, in series [2] (Example B.V, 100 g of ai/ha), the POROL found is recorded as 0%. Besides, the PHBPU found in series [3] (Example B.II, 50 g of ai/ha) worked out at 65%; in series [3] (Example B.III, 100 g of ai/ha), 45%.
Consider `CS(=O)(=O)c1ccc(C(=O)C2C(=O)CCCC2=O)c(Cl)c1COCC(F)(F)F` [Compound A4], for which the TRZDU found in the series with TRZDU (Triticum davam) is listed as 5%. Moreover, the POROL found in series [2] (Example B.VIII, 25 g of ai/ha) was found to be 5%.
As to `COc1cc(OC)nc(NC(=O)NS(=O)(=O)c2ccc(NC=O)cc2C(=O)N(C)C)n1` [Compound B1], the KCHSC found in the series on KCHSC (Kochia scoparia) (30 g of ai/ha) worked out at 30%; in the series with KCHSC (Kochia scoparia) (60 g of ai/ha), 33%. In series [2] (Example B.V, 30 g of ai/ha), the POROL found is 43%. The PHBPU found in series [3] (Example B.II, 30 g of ai/ha) is given as 20%.
For the compound `CP(=O)(O)CCC(N)C(=O)O` (stereo not shown) [Compound B2, glufosinate], the CHEAL found in series [1] (Example B.IV, 500 g of ai/ha) is recorded as 60%. Moreover, in series [3] (Example B.III, 500 g of ai/ha), the PHBPU found came out at 43%.
As for `CC(C)(F)c1nc(N)nc(NC(CCc2ccccc2)C2CCC2)n1` (stereo not shown) [Compound B3], the HORVS found in the series with HORVS (Hordeum vulgaris) is reported as 0%. Also, in series [1] (Example B.VI, 100 g of ai/ha), the CHEAL found is on record as 30%.
On to `COC(=O)c1ccc(I)cc1S(=O)(=O)[N-]C(=O)Nc1nc(C)nc(OC)n1.[Na+]` [Compound B4], for which the TRZDU found in the series with TRZDU (Triticum davam) is 15%. For the same compound, the POROL found in series [2] (Example B.VIII, 2.5 g of ai/ha) stood at 20%.
With `N#Cc1cc(Br)c(O)c(Br)c1` [Compound B5, bromoxynil], the ZEAMX found in the series with ZEAMX (Zea mays) was 0%. Besides, the BRAPL found with BRAPL was determined as 0%.
